Laboratory results published in publication PMC12396409, “Screening and hit evaluation of a microbial metabolite library against the pathogenic Plasmodium falciparum and Toxoplasma gondii parasites” (International Journal for Parasitology: Drugs and Drug …, 2025).
Like-named read-outs stand apart in the source and are kept apart here. Where a SMILES comes first, the peptide text is derived from it. [ ]: non-standard residue; d: D form. GABA = NCCCC(=O)O

Tests used:
[1] = system: P. falciparum 3D7 parasites; test: P. falciparum growth inhibition assay, 1-cycle (72 h treatment), SYBR DNA staining (library screen at 2 μg/mL and dose-response); assay type: cell-based, Plasmodium falciparum; details: for activity at 2 µg/mL: Plasmodium falciparum
[2] = system: P. falciparum 3D7 parasites; test: P. falciparum growth inhibition assay, 2-cycle (120 h treatment), delayed-death screen and dose-response; assay type: cell-based, Plasmodium falciparum; details: for activity at 2 µg/mL: Plasmodium falciparum
[3] = system: T. gondii RH strain (RH-Tub-eYFP) tachyzoites; test: microbe, parasite or virus in culture; assay type: cell-based, Toxoplasma gondii; details: 72 h, 72 h; for percent parasite growth at 2 µg/mL: Toxoplasma gondii
[4] = T. gondii, screen at 2 μg/mL, replicate 1, read-out: Tg_72h_%Growth_Rep1
[5] = T. gondii, screen at 2 μg/mL, replicate 2, read-out: Tg_72h_%Growth_Rep2
[6] = library screen at 2 μg/mL, 72 h, % growth, replicate 1
[7] = library screen at 2 μg/mL, 72 h, % growth, replicate 2
[8] = library screen at 2 μg/mL, 120 h, % growth, replicate 1
[9] = library screen at 2 μg/mL, 120 h, % growth, replicate 2
[10] = library screen at 2 μg/mL, % growth, replicate 1
[11] = library screen at 2 μg/mL, % growth, replicate 2

COc1cc(-c2cc3c(c(=O)o2)C[C@]2(O)[C@@]4(C)C(=O)C=CC(C)(C)[C@]4(O)CC[C@@]2(C)O3)cc(OC)c1OC [Territrem B]
activity at 2 µg/mL ([1]; 3D7, 72 h, P. falciparum, 72 h, screen at 2 μg/mL, replicate 1, read-out: Pf_72h_%Growth_Rep1): 63.6%
activity at 2 µg/mL ([1]; 3D7, 72 h, P. falciparum, 72 h, screen at 2 μg/mL, replicate 2, read-out: Pf_72h_%Growth_Rep2): 64.7%
activity at 2 µg/mL ([2]; 3D7, 120 h, P. falciparum, 120 h, screen at 2 μg/mL, replicate 1, read-out: Pf_120h_%Growth_Rep1): 148%
activity at 2 µg/mL ([2]; 3D7, 120 h, P. falciparum, 120 h, screen at 2 μg/mL, replicate 2, read-out: Pf_120h_%Growth_Rep2): 68.3%
percent parasite growth at 2 µg/mL [3, 4]: 89.7%
percent parasite growth at 2 µg/mL [3, 5]: 98.2%

CC(C)[C@H]1NC(=O)[C@H](Cc2ccccc2)NC(=O)[C@@H](C(C)C)NC(=O)[C@@H](C)NC(=O)CCCNC(=O)[C@@H](Cc2c[nH]c3ccccc23)NC(=O)[C@@H](C)NC1=O [Unguisin A] (cyclo(F[dV][dA][dW][GABA][dA][dV]))
Pf_72h_%Growth_Rep1 ([1]; P. falciparum, 72 h, screen at 2 μg/mL, replicate 1): 89.83%
Pf_72h_%Growth_Rep2 ([1]; P. falciparum, 72 h, screen at 2 μg/mL, replicate 2): 117.62%
Pf_120h_%Growth_Rep1 ([2]; P. falciparum, 120 h, screen at 2 μg/mL, replicate 1): 110.43%
Pf_120h_%Growth_Rep2 ([2]; P. falciparum, 120 h, screen at 2 μg/mL, replicate 2): -17.05%
Tg_72h_%Growth_Rep1 ([3]; T. gondii, screen at 2 μg/mL, replicate 1): 121.37%
Tg_72h_%Growth_Rep2 ([3]; T. gondii, screen at 2 μg/mL, replicate 2): 69.01%

CC(=O)OC[C@]12[C@H](O)C(=O)C(C)=C[C@H]1O[C@@H]1[C@H](O)C[C@@]2(C)[C@]12CO2 [Acetyldeoxynivalenol, 15-]
Pf_72h_%Growth_Rep1 [1, 6]: 5.76%
Pf_72h_%Growth_Rep2 [1, 7]: -0.64%
Pf_120h_%Growth_Rep1 [2, 8]: 6.22%
Pf_120h_%Growth_Rep2 [2, 9]: 4.98%
Tg_72h_%Growth_Rep1 [3, 10]: -2.45%
Tg_72h_%Growth_Rep2 [3, 11]: -0.58%

CO[C@H]1C[C@H](O[C@H]2[C@H](C)O[C@@H](O[C@@H]3/C(C)=C/C[C@@H]4C[C@@H](C[C@]5(C=C[C@H](C)[C@@H](C6CCCCC6)O5)O4)OC(=O)C4=C[C@H](C)[C@@H](O)[C@H]5OC/C(=C\C=C[C@@H]3C)[C@@]45O)C[C@@H]2OC)O[C@@H](C)[C@@H]1O [Doramectin, delta2-]
Pf_72h_%Growth_Rep1 [1, 6]: 3.28%
Pf_72h_%Growth_Rep2 [1, 7]: 1.57%
Pf_120h_%Growth_Rep1 [2, 8]: 4.07%
Pf_120h_%Growth_Rep2 [2, 9]: 0.97%
Tg_72h_%Growth_Rep1 [3, 10]: 85.18%
Tg_72h_%Growth_Rep2 [3, 11]: 104.19%

CC(=O)[C@H]1c2c(c(O)c3c(O)cccc3c2-c2c3c(c(O)c4c(O)cccc24)C(=O)C[C@](C)(O)[C@H]3C(C)=O)C(=O)C[C@]1(C)O [A 39183A]
Pf_72h_%Growth_Rep1 [1, 6]: 2.40%
Pf_72h_%Growth_Rep2 [1, 7]: 2.28%
Pf_120h_%Growth_Rep1 [2, 8]: 5.28%
Pf_120h_%Growth_Rep2 [2, 9]: -2.60%
Tg_72h_%Growth_Rep1 [3, 10]: 90.59%
Tg_72h_%Growth_Rep2 [3, 11]: 100.22%

COc1c(CC(C)O)c2c3c(CC(C)O)c(OC)c(=O)c4c(O)cc5c(c6c(cc(O)c(c1=O)c62)OCO5)c43 (centres unmarked) [Cercosporin]
activity at 2 µg/mL ([1]; 3D7, P. falciparum, 72 h, screen at 2 μg/mL, replicate 1, read-out: Pf_72h_%Growth_Rep1): 9.71%
activity at 2 µg/mL ([1]; 3D7, P. falciparum, 72 h, screen at 2 μg/mL, replicate 2, read-out: Pf_72h_%Growth_Rep2): 9.49%
activity at 2 µg/mL ([2]; 3D7, P. falciparum, 120 h, screen at 2 μg/mL, replicate 1, read-out: Pf_120h_%Growth_Rep1): 7.99%
activity at 2 µg/mL ([2]; 3D7, P. falciparum, 120 h, screen at 2 μg/mL, replicate 2, read-out: Pf_120h_%Growth_Rep2): 4.28%
percent parasite growth at 2 µg/mL [3, 4]: 4.15%
percent parasite growth at 2 µg/mL [3, 5]: 11.5%

CC(=O)O[C@H]1C[C@@]2(C)[C@@H](C[C@@H](O)[C@H]3[C@@]4(C)CC[C@@H](O)[C@@H](C)[C@@H]4CC[C@@]32C)/C1=C(\CCC=C(C)C)C(=O)O [Fusidate sodium]
activity at 2 µg/mL ([1]; 3D7, 72 h, library screen at 2 μg/mL, 72 h, % growth, replicate 1, read-out: Pf_72h_%Growth_Rep1): 87.5%
activity at 2 µg/mL ([1]; 3D7, 72 h, library screen at 2 μg/mL, 72 h, % growth, replicate 2, read-out: Pf_72h_%Growth_Rep2): 96%
activity at 2 µg/mL ([2]; 3D7, 120 h, library screen at 2 μg/mL, 120 h, % growth, replicate 1, read-out: Pf_120h_%Growth_Rep1): 91.2%
activity at 2 µg/mL ([2]; 3D7, 120 h, library screen at 2 μg/mL, 120 h, % growth, replicate 2, read-out: Pf_120h_%Growth_Rep2): 139%
percent parasite growth at 2 µg/mL ([3]; library screen at 2 μg/mL, % growth, replicate 1, read-out: Tg_72h_%Growth_Rep1): 111%
percent parasite growth at 2 µg/mL ([3]; library screen at 2 μg/mL, % growth, replicate 2, read-out: Tg_72h_%Growth_Rep2): 91.8%

CCCCCCC(=O)CCCCCC/C=C/C[C@@H](O)[C@H](O)[C@@](N)(CO)C(=O)O [BIA-M1219]
Pf_72h_%Growth_Rep1 ([1]; P. falciparum 3D7, 72 h, parasite screen at 2 μg/mL, % growth, replicate 1): 77.20%
Pf_72h_%Growth_Rep2 ([1]; P. falciparum 3D7, 72 h, parasite screen at 2 μg/mL, % growth, replicate 2): 44.93%
Pf_120h_%Growth_Rep1 ([2]; P. falciparum 3D7, 120 h, parasite screen at 2 μg/mL, % growth, replicate 1): 68.80%
Pf_120h_%Growth_Rep2 ([2]; P. falciparum 3D7, 120 h, parasite screen at 2 μg/mL, % growth, replicate 2): 36.84%
Tg_72h_%Growth_Rep1 ([3]; T. gondii, parasite screen at 2 μg/mL, % growth, replicate 1): 113.89%
Tg_72h_%Growth_Rep2 ([3]; T. gondii, parasite screen at 2 μg/mL, % growth, replicate 2): 86.95%

CC[C@]1(C)C[C@@H](OC(=O)CO)C2(C)[C@H](C)CCC3(CCC(=O)[C@H]32)[C@@H](C)[C@@H]1O (some centres unmarked) [Dihydropleuromutilin]
Screen (P. falciparum) ([1]; library screen at 2 μg/mL, 3D7, 72 h, DD from the 120 h timepoint): I, I
Pf_72h_%Growth_Rep1 [1, 6]: 84.27%
Pf_72h_%Growth_Rep2 [1, 7]: 76.59%
Pf_120h_%Growth_Rep1 [2, 8]: 42.82%
Pf_120h_%Growth_Rep2 [2, 9]: 51.71%
Tg_72h_%Growth_Rep1 [3, 10]: 80.68%
Tg_72h_%Growth_Rep2 [3, 11]: 63.68%
Screen (T. gondii) ([3]; library screen at 2 μg/mL, RH strain): I, I
